Data as given in PMC2365101, “Anti-Inflammatory Activity of (Polyphenolic)-Sulfonates and Their Sodium Salts in Rodents” (Metal-Based Drugs, 1998).
pIC50: −log10 of the molar value.

Experiments:
[1] = tested on: CF1 male mice, carrageenan induced edema; experiment: Anti-inflammatory screen in mice (carrageenan induced foot edema); type: in vivo; conditions: for reduction of edema: 16 mg/kg X 2
Excerpt: Few reports in the literature indicate interaction at these receptor sites other than by peptides or antibodies. […] Blocking these receptors is desirable because the entire inflammation cascade of events is triggered by the early release of TNFa and IL-1. […] Radioisotopes were obtained from New England Nuclear [Dupont, Boston, MA] and substrates and co- factors were obtained from Sigma Chemical Co. [St. Louis, MO]. […] Cell lines were obtained from American Type Culture Collection [Rockville, MD]. In Vivo Tests Anti-inflammatory screen in mice: Male CF male mice weighing 28-32g obtained from Jackson Lab. […] Evaluation of the induced edema was made by injecting 2% carrageenan in 0.9% saline into the plantar region of the foot. The opposite foot injected with 0.9% isotonic saline was used as a base line. […] Salmonella abortus equi [Lot # 69F4003] […] Drugs from 2 to 16 mg/kg, I.P. were administered 2 hr prior and 2 hr post-injection of the LPS and then subsequently for every 24 hr for the length ofthe animals' lives. Deaths were recorded every 12 hr and continued for 96 hr. […] In vitro TNFa andIL-1 Measurements and Cellular Regulation IC-21 mouse macrophages were maintained in RPMI-1640 + 10% FCS + P/S. After the cells had grown to confluency, E. coli LPS at 10 Ixg/ml was added to the medium. Agents were incubated at 12.5 to 100 µM final concentration for 18 hr. The medium (100 btl) was collected for TNFCt determinations. Interleukin-1 [IL-1] release was determined using P388D1 cells which were maintained in RPMI-1640 + 10% FCS + P/S. The L929 bioassay was used to quantitate the TNF and the IL-1 levels. The L929 mouse fibroblasts were grown in DMEM + 10% FCS + P/S to confluency in 96 well plates and incubated with 100 tl ofmedium from […] or P388D cells after 18 hr. The cells were stained with 0.2% crystal violet in 20% MeOH and read at 580 nm using a Molecular Devices scanner (SOFT-max program). High Affinity Binding to Receptors on L929-106 Cells Two laCi of 125I-TNFct (human recombinant, 30 mCi/tg New England Nuclear) or 125I-IL-1 (70-120[.t Ci/lxg,New England Nuclear) was added to confluency L929 cells for 90 min or 5 hr, respectively with 25, 50 and 100 tM of the test compounds 12]. The cells were washed repeatedly with isotonic saline, pH.7.2 and aliquots counted. Prostaglandin cylcooxygenase activity Mouse J774AI macrophages maintained in Dulbecco's modified Eagle's medium + 15% FCS + P/S. Cells (5 x 106) were incubated with agents (5 to 100 ].tM final concentration) and 3H-arachidonic acid (100 Ci/mol) for 60 min at 37C in a CO2 incubator. The reaction was terminated with 2N HCI, the mixture extracted 2 X with ether, and the organic layer evaporated.

[2] = tested on: CF1 male mice, LPS Salmonella abortus equi induced death; experiment: Protection against septic shock (LPS induced endotoxic shock); type: in vivo; conditions: for Percent Survival at 52 hr: LPS 10 mg/kg, CF1 male mice, N=6
Excerpt: (§1) Few reports in the literature indicate interaction at these receptor sites other than by peptides or antibodies. […] Blocking these receptors is desirable because the entire inflammation cascade of events is triggered by the early release of TNFa and IL-1. […] Radioisotopes were obtained from New England Nuclear [Dupont, Boston, MA] and substrates and co- factors were obtained from Sigma Chemical Co. [St. Louis, MO]. […] Cell lines were obtained from American Type Culture Collection [Rockville, MD]. In Vivo Tests Anti-inflammatory screen in mice: Male CF male mice weighing 28-32g obtained from Jackson Lab. [Bar Harbor, […]] were used to screen agents at 8 or 16 mg/kg intraperitoneal [I.P.] x 2 administered 3 hr and 30 min prior to administering the irritant, according to Winter's protocol. Evaluation of the induced edema was made by injecting 2% carrageenan in 0.9% saline into the plantar region of the foot. The opposite foot injected with 0.9% isotonic saline was used as a base line. […] Salmonella abortus equi [Lot # 69F4003] […] Drugs from 2 to 16 mg/kg, I.P. were administered 2 hr prior and 2 hr post-injection of the LPS and then subsequently for every 24 hr for the length ofthe animals' lives. Deaths were recorded every 12 hr and continued for 96 hr. […] In vitro TNFa andIL-1 Measurements and Cellular Regulation IC-21 mouse macrophages were maintained in RPMI-1640 + 10% FCS + P/S. After the cells had grown to confluency, E. coli LPS at 10 Ixg/ml was added to the medium. Agents were incubated at 12.5 to 100 µM final concentration for 18 hr. The medium (100 btl) was collected for TNFCt determinations. Interleukin-1 [IL-1] release was determined using P388D1 cells which were maintained in RPMI-1640 + 10% FCS + P/S. The L929 bioassay was used to quantitate the TNF and the IL-1 levels. The L929 mouse fibroblasts were grown in DMEM + 10% FCS + P/S to confluency in 96 well plates and incubated with 100 tl ofmedium from […] or P388D cells after 18 hr. The cells were stained with 0.2% crystal violet in 20% MeOH and read at 580 nm using a Molecular Devices scanner (SOFT-max program). High Affinity Binding to Receptors on L929-106 Cells Two laCi of 125I-TNFct (human recombinant, 30 mCi/tg New England Nuclear) or 125I-IL-1 (70-120[.t Ci/lxg,New England Nuclear) was added to confluency L929 cells for 90 min or 5 hr, respectively with 25, 50 and 100 tM of the test compounds 12]. The cells were washed repeatedly with isotonic saline, pH.7.2 and aliquots counted. Prostaglandin cylcooxygenase activity Mouse J774AI macrophages maintained in Dulbecco's modified Eagle's medium + 15% FCS + P/S. Cells (5 x 106) were incubated with agents (5 to 100 ].tM final concentration) and 3H-arachidonic acid (100 Ci/mol) for 60 min at 37C in a CO2 incubator. The reaction was terminated with 2N HCI, the mixture extracted 2 X with ether, and the organic layer evaporated.

[3] = tested on: cytokine synthesis and release; conditions: tissue culture; no reference given; read-out: IC50 to block cytokine synthesis and release; cited from earlier work
[4] = molecular target: J774-A1 macrophage elastase; experiment: Elastase activity in J774-A1 macrophages; type: biochemical, mouse
[5] = molecular target: IC-21 macrophage elastase; experiment: Elastase activity in IC-21 macrophages; type: biochemical, mouse
[6] = molecular target: human leukocyte elastase (RPMI 1788); experiment: Elastase activity in human leukocytes RPMI 1788; type: biochemical
[7] = molecular target: J774-A1 prostaglandin cyclooxygenase; experiment: Prostaglandin cyclooxygenase activity in J774-A1 macrophages; type: cell-based, mouse; conditions: 60 min; read-out: IC50 Cyclo-oxygenase J774-A1
Excerpt: as §1

[8] = tested on: CF1 male mice, LPS Salmonella abortus equi induced death; experiment: Protection against septic shock (LPS induced endotoxic shock); type: in vivo
[9] = 8 mg/Kg X 2, I.P., CF1 male mice, N=6
[10] = 16 mg/Kg X 2, I.P., CF1 male mice, N=6

| Structure (SMILES) | Percent of Control (induced edema) [1, 9] | Percent of Control (induced edema) [1, 10] | Percent Survival at 52 hr ([2]; 4 mg/Kg I.P.) [%] | Percent Survival at 52 hr ([2]; 8 mg/Kg I.P.) [%] | Percent Survival at 52 hr ([2]; 16 mg/Kg I.P.) [%] | pIC50 ([4]; 60 min) | pIC50 ([4]; 120 min) | pIC50 ([5]; 60 min) | pIC50 ([5]; 120 min) | pIC50 ([6]; 60 min) | pIC50 ([6]; 120 min) | pIC50 [7] | protection from LPS induced death ([2]; 16 mg/kg) [%] | also measured |
| --- | --- | --- | --- | --- | --- | --- | --- | --- | --- | --- | --- | --- | --- | --- |
| CCCCC1C(=O)N(c2ccccc2)N(c2ccccc2)C1=O [Phenylbutazone, phenylbutazone, reference compound] |  |  |  |  |  |  |  |  |  |  |  |  |  | reduction in edema ([1]; 50 mg/kg X 2): 47% |
| C[C@@H]1C[C@H]2[C@@H]3CCC4=CC(=O)C=C[C@]4(C)[C@@]3(F)[C@@H](O)C[C@]2(C)[C@@]1(O)C(=O)CO [dexamethasone, reference compound] |  |  |  |  |  |  |  |  |  |  |  |  |  | protection from LPS induced death ([2]; dexamethasone dose printed 'at mg/kg' (methods: 1 mg/kg)): 67% |
| C[C@]12CCC(=O)C=C1CC[C@@H]1[C@@H]2[C@@H](O)C[C@@]2(C)[C@H]1CC[C@]2(O)C(=O)CO [hydrocortisone] |  |  |  |  |  |  |  |  |  |  |  |  |  | pIC50 [3]: 5.00 |
| O=S(=O)(O)c1cc2c(O)c(c1)Cc1cc(S(=O)(=O)O)cc(c1O)Cc1cc(S(=O)(=O)O)cc(c1O)Cc1cc(S(=O)(=O)O)cc(c1O)C2 [Compound 3] | 58 + 6% of Control | 61 +5% of Control | 50 | 100 | 50 | 4.52 to 5.00 | 3.55 | 4.14 | 4.60 | 4.14 | 4.60 | 4.56 |  | Percent Survival at 52 hr ([2]; 2 mg/kg I.P.): 67%; protection from LPS induced death ([2]; 8 mg/kg): 100%; pIC50 ([4]; 60 min, listed as #3): 4.54 |
| COc1c2cc(S(=O)(=O)O)cc1Cc1cc(S(=O)(=O)O)cc(c1OC)Cc1cc(S(=O)(=O)O)cc(c1OC)Cc1cc(S(=O)(=O)O)cc(c1OC)Cc1cc(S(=O)(=O)O)cc(c1OC)Cc1cc(S(=O)(=O)O)cc(c1OC)Cc1cc(S(=O)(=O)O)cc(c1OC)Cc1cc(S(=O)(=O)O)cc(c1OC)C2 [Compound 4] | 56 + 6% of Control | 48+4% of Control | 33 | 67 | 83 | 6.52 | 3.57 | 4.24 | 4.25 | 4.27 | 4.35 | 4.23 | 83 | reduction of edema [1]: greater than 40% |
| CC(=O)CCCCn1c(=O)c2c(ncn2C)n(C)c1=O [Pentoxifylline, pentoxifylline] |  |  |  |  |  |  |  |  |  |  |  |  |  | Percent of Control (induced edema) ([1]; 50 mg/Kg X 2, CF1 male mice): 70 + 6% of Control; Percent Survival at 52 hr ([8]; 50 mg/Kg/day): 67 + 6%; protection from LPS induced death ([8]; 50 mg/kg): 67% |
| N=C(N)c1ccc(OCCCCCOc2ccc(C(=N)N)cc2)cc1 [pentamidine] |  |  |  |  |  |  |  |  |  |  |  |  |  | pIC50 [3]: 6.00 |
| O=S(=O)(O)c1cc2c(O)c(c1)Cc1cc(S(=O)(=O)O)cc(c1O)Cc1cc(S(=O)(=O)O)cc(c1O)Cc1cc(S(=O)(=O)O)cc(c1O)Cc1cc(S(=O)(=O)O)cc(c1O)Cc1cc(S(=O)(=O)O)cc(c1O)Cc1cc(S(=O)(=O)O)cc(c1O)Cc1cc(S(=O)(=O)O)cc(c1O)C2 [Compound 1] | 51 + 4% of Control | 56+ 5% of Control | 50 | 50 |  |  | 3.44 | 4.27 | 4.35 | 4.24 | 4.25 | 4.69 | 83 | reduction of edema [1]: greater than 40% |
| O=S(=O)(O)c1cc2c(O)c(c1)Cc1cc(S(=O)(=O)O)cc(c1O)Cc1cc(S(=O)(=O)O)cc(c1O)Cc1cc(S(=O)(=O)O)cc(c1O)Cc1cc(S(=O)(=O)O)cc(c1O)Cc1cc(S(=O)(=O)O)cc(c1O)C2 [Compound 2] | 47 + 4% of Control | 74+ 5% of Control | 50 | 50 | 83 | 5.10 | 3.62 |  |  | 4.17 | 4.24 | 4.12 | 83 | Percent Survival at 52 hr ([2]; 2 mg/kg I.P.): 83% |
| COc1c2cc(S(=O)(=O)[O-])cc1Cc1cc(S(=O)(=O)[O-])cc(c1OC)Cc1cc(S(=O)(=O)[O-])cc(c1OC)Cc1cc(S(=O)(=O)[O-])cc(c1OC)C2.[Na+].[Na+].[Na+].[Na+] [Compound 5] |  | 61 +5% of Control |  | 33 | 67 |  |  |  | 3.95 |  |  | 4.19 | 67 | IC50 Elastase J774-A1 ([4]; 120 min): Increased |
